Reference: ChEMBL document CHEMBL5214974, “The design of protozoan phosphoribosyltransferase inhibitors containing non-charged phosphate mimic residues” (Bioorg Med Chem, 2022)

Assays:
[1] = Inhibition of N-terminal His6-tagged HGXPRT expressed in Escherichia coli BL21 cells assessed as reduction in NADH absorbance using hypoxanthine as substrate by IMPDH coupled assay; design: species or system Plasmodium falciparum
[2] = Inhibition of N-terminal His6-tagged Trypanosoma cruzi HGPRT isoform C expressed in Escherichia coli C43(DE3) cells assessed as inhibition of IMP formation using hypoxanthine as substrate by spectrophotometric assay
[3] = Inhibition of N-terminal His6-tagged Trypanosoma cruzi HGXPRT isoform B expressed in Escherichia coli BL21(DE3) cells assessed as inhibition of IMP formation using hypoxanthine as substrate by spectrophotometric assay

Row | Structure (SMILES) | Ki [1] | Ki [2] | Ki [3]
1 | O=c1[nH]cnc2c(CN[C@H](CO)CCP(=O)(O)O)c[nH]c12 | 0.00065 µM | 0.011 µM | –
2 | O=C1CN(CC[C@@H](CO)NCc2c[nH]c3c(O)nc(O)nc23)S(=O)(=O)N1 | > 20 µM | > 130 µM | > 140 µM
3 | O=P(O)(O)CC[C@@H](CO)NCc1c[nH]c2c(O)nc(O)nc12 | 8 µM | 18 µM | –
4 | Nc1nc(O)c2[nH]cc(CN[C@H](CO)CCP(=O)(O)O)c2n1 | 0.0005 µM | 0.03 µM | –
5 | NS(=O)(=O)NC[C@@H](CO)NCc1c[nH]c2c(O)ncnc12 | > 20 µM | > 130 µM | > 140 µM
6 | O=C1N[C@@H]([C@@H](CO)NCc2c[nH]c3c(O)ncnc23)CO1 | > 20 µM | > 130 µM | > 140 µM
7 | O=c1cc([C@@H](CO)NCc2c[nH]c3c(O)ncnc23)o[nH]1 | > 20 µM | > 130 µM | > 140 µM
8 | O=c1c(O)c(NCC[C@@H](CO)NCc2c[nH]c3c(O)ncnc23)c1=O | > 20 µM | > 130 µM | > 140 µM
9 | O=c1c(O)c(NC[C@@H](CO)NCc2c[nH]c3c(O)ncnc23)c1=O | > 20 µM | > 130 µM | > 140 µM
10 | NS(=O)(=O)NC[C@@H](CO)NCc1c[nH]c2c(O)nc(O)nc12 | > 20 µM | > 130 µM | > 140 µM
11 | O=C1CN(C[C@@H](CO)NCc2c[nH]c3c(O)nc(O)nc23)S(=O)(=O)N1 | > 20 µM | > 130 µM | > 140 µM
12 | O=C1CN(CC[C@@H](CO)NCc2c[nH]c3c(O)ncnc23)S(=O)(=O)N1 | > 20 µM | > 130 µM | > 140 µM
13 | O=C1CN(C[C@@H](CO)NCc2c[nH]c3c(O)ncnc23)S(=O)(=O)N1 | > 20 µM | > 130 µM | > 140 µM
